Laboratory results taken from publication PMC11033320, “Activation of p53 signaling and regression of breast and prostate carcinoma cells by spirooxindole-benzimidazole small molecules” (Frontiers in Pharmacology, 2024).

How the values were obtained:
SF-295 = experiment: NCI anticancer screening, CNS Cancer SF-295; format: cell-based; settings: Homo sapiens; SF-295, 10 μM; read-out: % Growth Inhibition (GI %)
Text: (§1) The compound has been processed according to standard method NCI-60 Human Tumor Cell Lines Screen for organic compound at development therapeutic program (DTP). Requests for access to this national resource can be submitted online at: […]

NCI/ADR-RES = experiment: NCI anticancer screening, Ovarian Cancer NCI/ADR-RES; format: cell-based; settings: Homo sapiens, read-out: % Growth Inhibition (GI %)
Text: as §1

HCT-116 = experiment: NCI anticancer screening, Colon Cancer HCT-116; format: cell-based; settings: Homo sapiens; HCT-116, 10 μM; read-out: % Growth Inhibition (GI %)
Text: as §1

SF-539 = experiment: NCI anticancer screening, CNS Cancer SF-539; format: cell-based; settings: Homo sapiens; SF-539, 10 μM; read-out: % Growth Inhibition (GI %)
Text: as §1

HCT-15 = experiment: NCI anticancer screening, Colon Cancer HCT-15; format: cell-based; settings: Homo sapiens; HCT-15, 10 μM; read-out: % Growth Inhibition (GI %)
Text: as §1

OVCAR-4 = experiment: NCI anticancer screening, Ovarian Cancer OVCAR-4; format: cell-based; settings: Homo sapiens; OVCAR-4, 10 μM; read-out: % Growth Inhibition (GI %)
Text: as §1

NCI-H460 = experiment: NCI anticancer screening, Non-Small Cell Lung Cancer NCI-H460; format: cell-based; settings: Homo sapiens; NCI-H460, 10 μM; read-out: % Growth Inhibition (GI %)
Text: as §1

HOP-92 = experiment: NCI anticancer screening, Non-Small Cell Lung Cancer HOP-92; format: cell-based; settings: Homo sapiens; HOP-92, 10 μM; read-out: % Growth Inhibition (GI %)
Text: as §1

SK-MEL-2 = experiment: NCI anticancer screening, Melanoma SK-MEL-2; format: cell-based; settings: Homo sapiens; SK-MEL-2, 10 μM; read-out: % Growth Inhibition (GI %)
Text: as §1

NCI-H322M = experiment: NCI anticancer screening, Non-Small Cell Lung Cancer NCI-H322M; format: cell-based; settings: Homo sapiens, read-out: % Growth Inhibition (GI %)
Text: as §1

BT-549 = experiment: NCI anticancer screening, Breast Cancer BT-549; format: cell-based; settings: Homo sapiens; BT-549, 10 μM; read-out: % Growth Inhibition (GI %)
Text: as §1

SK-MEL-5 = experiment: NCI anticancer screening, Melanoma SK-MEL-5; format: cell-based; settings: Homo sapiens; SK-MEL-5, 10 μM; read-out: % Growth Inhibition (GI %)
Text: as §1

NCI-H23 = experiment: NCI anticancer screening, Non-Small Cell Lung Cancer NCI-H23; format: cell-based; settings: Homo sapiens; NCI-H23, 10 μM; read-out: % Growth Inhibition (GI %)
Text: as §1

M14 = experiment: NCI anticancer screening, Melanoma M14; format: cell-based; settings: Homo sapiens; M14, 10 μM; read-out: % Growth Inhibition (GI %)
Text: as §1

T-47D = experiment: NCI anticancer screening, Breast Cancer T-47D; format: cell-based; settings: Homo sapiens, T47D, read-out: % Growth Inhibition (GI %)
Text: as §1

EKVX = experiment: NCI anticancer screening, Non-Small Cell Lung Cancer EKVX; format: cell-based; settings: Homo sapiens, read-out: % Growth Inhibition (GI %)
Text: as §1

SNB-19 = experiment: NCI anticancer screening, CNS Cancer SNB-19; format: cell-based; settings: Homo sapiens; SNB-19, 10 μM; read-out: % Growth Inhibition (GI %)
Text: as §1

CCRF-CEM = experiment: NCI anticancer screening, Leukemia CCRF-CEM; format: cell-based; settings: Homo sapiens, read-out: % Growth Inhibition (GI %)
Text: as §1

K-562 = experiment: NCI anticancer screening, Leukemia K-562; format: cell-based; settings: Homo sapiens, K562; K-562, 10 μM; read-out: % Growth Inhibition (GI %)
Text: as §1

SN12C = experiment: NCI anticancer screening, Renal Cancer SN12C; format: cell-based; settings: Homo sapiens, read-out: % Growth Inhibition (GI %)
Text: as §1

HS 578T = experiment: NCI anticancer screening, Breast Cancer HS 578T; format: cell-based; settings: Homo sapiens, read-out: % Growth Inhibition (GI %)
Text: as §1

OVCAR-5 = experiment: NCI anticancer screening, Ovarian Cancer OVCAR-5; format: cell-based; settings: Homo sapiens; OVCAR-5, 10 μM; read-out: % Growth Inhibition (GI %)
Text: as §1

U251 = experiment: NCI anticancer screening, CNS Cancer U251; format: cell-based; settings: Homo sapiens, U-251; U251, 10 μM; read-out: % Growth Inhibition (GI %)
Text: as §1

MDA-MB 231 cells = settings: for inhibition: 5 µM
Protocol: Anticancer effect of the above-mentioned compounds was assayed using three human cancer cell lines. Triple negative breast cancer cell line (MDA-MB 231) and prostate cancer cell line (PC3) were cultured in DMEM (Lonza, USA) supplemented with 10% FBS. All cancer cells (4x10^3 cells/well) were seeded in sterile 96-well plates. After 24h, serial concentrations of the tested compounds were incubated with three cancer cell lines for 72 h at 37 °C in 5% CO2 incubator. […] The half maximal inhibitory concentration (IC50) values were calculated using the Graphpad Instat software.

SF-268 = experiment: NCI anticancer screening, CNS Cancer SF-268; format: cell-based; settings: Homo sapiens; SF-268, 10 μM; read-out: % Growth Inhibition (GI %)
Text: as §1

LOX IMVI = experiment: NCI anticancer screening, Melanoma LOX IMVI; format: cell-based; settings: Homo sapiens, read-out: % Growth Inhibition (GI %)
Text: as §1

MCF7 = experiment: NCI anticancer screening, Breast Cancer MCF7; format: cell-based; settings: Homo sapiens; MCF7, 10 μM; read-out: % Growth Inhibition (GI %)
Text: as §1

MDA-MB-468 = experiment: NCI anticancer screening, Breast Cancer MDA-MB-468; format: cell-based; settings: Homo sapiens, read-out: % Growth Inhibition (GI %)
Text: as §1

SR = experiment: NCI anticancer screening, Leukemia SR; format: cell-based; settings: Homo sapiens, read-out: % Growth Inhibition (GI %)
Text: as §1

UO-31 = experiment: NCI anticancer screening, Renal Cancer UO-31; format: cell-based; settings: Homo sapiens; UO-31, 10 μM; read-out: % Growth Inhibition (GI %)
Text: as §1

OVCAR-8 = experiment: NCI anticancer screening, Ovarian Cancer OVCAR-8; format: cell-based; settings: Homo sapiens; OVCAR-8, 10 μM; read-out: % Growth Inhibition (GI %)
Text: as §1

KM12 = experiment: NCI anticancer screening, Colon Cancer KM12; format: cell-based; settings: Homo sapiens; KM12, 10 μM; read-out: % Growth Inhibition (GI %)
Text: as §1

SW-620 = experiment: NCI anticancer screening, Colon Cancer SW-620; format: cell-based; settings: Homo sapiens; SW-620, 10 μM; read-out: % Growth Inhibition (GI %)
Text: as §1

TK-10 = experiment: NCI anticancer screening, Renal Cancer TK-10; format: cell-based; settings: Homo sapiens; TK-10, 10 μM; read-out: % Growth Inhibition (GI %)
Text: as §1

MDA-MB-435 = experiment: NCI anticancer screening, Melanoma MDA-MB-435; format: cell-based; settings: Homo sapiens; MDA-MB-435, 10 μM; read-out: % Growth Inhibition (GI %)
Text: as §1

SNB-75 = experiment: NCI anticancer screening, CNS Cancer SNB-75; format: cell-based; settings: Homo sapiens; SNB-75, 10 μM; read-out: % Growth Inhibition (GI %)
Text: as §1

SMILES | inhibition at 10 µM (SF-295) [%] | inhibition at 10 µM (NCI/ADR-RES) [%] | inhibition at 10 µM (HCT-116) [%] | inhibition at 10 µM (SF-539) [%] | inhibition at 10 µM (HCT-15) [%] | inhibition at 10 µM (OVCAR-4) [%] | inhibition at 10 µM (NCI-H460) [%] | inhibition at 10 µM (HOP-92) [%] | inhibition at 10 µM (SK-MEL-2) [%] | inhibition at 10 µM (NCI-H322M) [%] | inhibition at 10 µM (BT-549) [%] | inhibition at 10 µM (SK-MEL-5) [%] | inhibition at 10 µM (NCI-H23) [%] | inhibition at 10 µM (M14) [%] | inhibition at 10 µM (T-47D) [%] | inhibition at 10 µM (EKVX) [%] | melting point [°C] | inhibition at 10 µM (SNB-19) [%] | inhibition at 10 µM (CCRF-CEM) [%] | inhibition at 10 µM (K-562) [%] | also measured
CN(C)c1ccc([C@@H]2C3CSCN3[C@]3(C(=O)Nc4ccccc43)[C@H]2C(=O)c2nc3ccccc3[nH]2)cc1 (stereo partly drawn) [Compound 6k, (3S,6′R)-6'-(1H-Benzo [d]imidazole-2-carbonyl)-7'-(4-(dimethylamino)phenyl)-3′,6′,7′,7a′-tetrahydro-1′H-spiro [indoline-3.5′-pyrrolo [1,2-c]thiazol]-2-one] | 103 | 96 | 102 | 99.6 | 99.1 | 91.5 | 102 | 104 | 106 | 99.8 | 108 | 98.2 | 94.3 | 103 | 83 | 91.4 | 178 to 180 | 91.7 | 99.9 | 92.2 | inhibition at 10 µM (SN12C): 94%; inhibition at 10 µM (HS 578T): 91.7%; inhibition at 10 µM (OVCAR-5): 95.6%; inhibition at 10 µM (U251): 103%; IC50 (MDA-MB 231 cells): 4 ± 0.249 µM; inhibition (MDA-MB 231 cells): 37.6 ± 2.61%; inhibition at 10 µM (SF-268): 92.1%; inhibition at 10 µM (LOX IMVI): 94.2%; inhibition at 10 µM (MCF7): 93.6%; inhibition at 10 µM (MDA-MB-468): 99.8%; inhibition at 10 µM (SR): 84.3%; inhibition at 10 µM (UO-31): 73.4%; inhibition at 10 µM (OVCAR-8): 105%; inhibition at 10 µM (KM12): 95.7%; inhibition at 10 µM (SW-620): 100%; inhibition at 10 µM (TK-10): 111%; inhibition at 10 µM (MDA-MB-435): 96.8%; inhibition at 10 µM (SNB-75): 88.3%
O=C(c1nc2ccccc2[nH]1)[C@H]1[C@H](c2cccs2)C2CSCN2[C@]12C(=O)Nc1ccccc12 (stereo partly drawn) [Compound 6e, (3S,6′R)-6'-(1H-Benzo [d]imidazole-2-carbonyl)-7'-(thiophen-2-yl)-3′,6′,7′,7a′-tetrahydro-1′H-spiro [indoline-3.5′-pyrrolo [1,2-c]thiazol]-2-one] | 92.6 | 102 | 96.3 | 101 | 100 | 93.9 | 101 | 105 | 111 | 97.7 | 94.1 | 99 | 103 | 100 | 90.5 | 100 | 240 to 242 | 104 | 104 | 100 | inhibition at 10 µM (SN12C): 97.5%; inhibition at 10 µM (HS 578T): 101%; inhibition at 10 µM (OVCAR-5): 96.2%; inhibition at 10 µM (U251): 100%; IC50 (MDA-MB 231 cells): 5.61 µM; inhibition (MDA-MB 231 cells): 58.2 ± 1.85%; inhibition at 10 µM (SF-268): 92.4%; inhibition at 10 µM (LOX IMVI): 97.5%; inhibition at 10 µM (MCF7): 94.5%; inhibition at 10 µM (MDA-MB-468): 100%; inhibition at 10 µM (SR): 101%; inhibition at 10 µM (UO-31): 76%; inhibition at 10 µM (OVCAR-8): 96.8%; inhibition at 10 µM (KM12): 98.8%; inhibition at 10 µM (SW-620): 96.7%; inhibition at 10 µM (TK-10): 106%; inhibition at 10 µM (MDA-MB-435): 100%; inhibition at 10 µM (SNB-75): 85.9%
